Test results from patent US20070004680A1, “Compositions and methods for modulating gated ion channels” (PainCeptor Pharma Corporation, priority 2004, published 2007).

Key:
ASIC1a [1] = target: T1, ASIC1a (Rattus norvegicus, UniProt P55926); experiment: whole cell patch clamp electrophysiology, ASIC1a; type: cell-based; details: 1 μM compound; pH 6.5 and pH 5.0; compared with the corresponding 5-vinyl esters
T1 construct: expressed in transfected cells; host or cells: HEK cells according to b213
T1 sequence (P55926 1-526): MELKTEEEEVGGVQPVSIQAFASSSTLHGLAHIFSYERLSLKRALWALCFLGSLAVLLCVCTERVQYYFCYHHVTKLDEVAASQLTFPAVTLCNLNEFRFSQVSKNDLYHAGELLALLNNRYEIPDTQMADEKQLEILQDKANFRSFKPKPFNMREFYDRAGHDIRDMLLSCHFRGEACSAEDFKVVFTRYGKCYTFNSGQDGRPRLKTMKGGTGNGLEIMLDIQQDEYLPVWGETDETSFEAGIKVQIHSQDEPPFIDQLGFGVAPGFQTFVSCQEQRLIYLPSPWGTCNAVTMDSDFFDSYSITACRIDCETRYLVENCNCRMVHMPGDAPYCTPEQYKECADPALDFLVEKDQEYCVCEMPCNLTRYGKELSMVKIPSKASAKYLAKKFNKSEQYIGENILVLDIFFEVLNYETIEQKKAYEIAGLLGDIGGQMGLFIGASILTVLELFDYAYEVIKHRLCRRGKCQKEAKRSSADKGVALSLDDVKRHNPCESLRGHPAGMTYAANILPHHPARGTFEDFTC
Description: (§1) Another example of an in vitro assessment method consists of using mammalian heterologous expression systems, which are known to the skilled in the art, and include a variety of mammalian cell lines such as COS, HEK, e.g., HEK293and/or CHO, cells. Cell lines are transfected with gated ion channel(s) and used to perform electrophysiology as follows:
(§2) All experiments are performed at room temperature (20-25° C.) in voltage clamp using conventional whole cell patch clamp methods (Neher, E., et al. (1978) Pfluegers Arch 375:219-228).
(§3) The amplifier used is the EPC-9 (HEKA-electronics, Lambrect, Germany) run by a Macintosh G3 computer via an ITC-16 interface. Experimental conditions are set with the Pulse-software accompanying the amplifier. Data is low pass filtered and sampled directly to hard-disk at a rate of 3 times the cut-off frequency.
(§4) Pipettes are pulled from borosilicate glass using a horizontal electrode puller (Zeitz-lnstrumente, Augsburg, Germany). The pipette resistances are 2-3 MOhms in the salt solutions used in these experiments. The pipette electrode is a chloridized silver wire, and the reference is a silver chloride pellet electrode (In Vivo Metric, Healdsburg, USA) fixed to the experimental chamber. The electrodes are zeroed with the open pipette in the bath just prior to sealing.
(§5) Coverslips with the cells are transferred to a 15 μl experimental chamber mounted on the stage of an inverted microscope (IMT-2, Olympus) supplied with Nomarski optics. Cells are continuously superfused with extracellular saline at a rate of 2.5 ml/min. After giga-seal formation, the whole cell configuration is attained by suction. The cells are held at a holding voltage of −60 mV and at the start of each experiment the current is continuously measured for 45 s to ensure a stable baseline. Solutions of low pH (<7) are delivered to the chamber through a custom-made gravity-driven flowpipe, the tip of which is placed approximately 50 μm from the cell. Application is triggered when the tubing connected to the flowpipe is compressed by a valve controlled by the Pulse-software. Initially, low pH (in general, pH 6.5) is applied for 1 s every 45 s. The sample interval during application is 550 μs. After stable responses are obtained, the extracellular saline as well as the low-pH solution are switched to solutions containing the compound to be tested. The compound is present until responses of a repeatable amplitude are achieved. Current amplitudes are measured at the peak of the responses, and effect of the compounds is calculated as the amplitude at compound equilibrium divided by the amplitude of the current evoked by the pulse just before the compound was included.
The following salt solutions are used: extracellular solution (mM): NaCl (140), KCl (4), CaCl2 (2), MgCl2 (4), HEPES (10, pH 7.4); intracellular solution (mM): KCl (120), KOH (31), MgCl2 (1.785), […] (10), HEPES (10, pH 7.2). In general, compounds for testing are dissolved in 50% DMSO at 500 fold the highest concentration used.
The cDNA for ASIC1a and ASIC3 can be cloned from rat poly(A)^+ mRNA and put into expression vectors according to Hesselager et al. (J Biol Chem. 279(12):11006-15 2004). All constructs are expressed in CHO-K1 cells (ATCC no. CCL61). CHO-K1 cells are cultured at 37° C. in a humidified atmosphere of 5% CO2 and 95% air and passaged twice every week. The cells are maintained in DMEM (10 mM HEPES, 2 mM glutamax) supplemented with 10% fetal bovine serum and 2 mM L-proline (Life Technologies). […]

ASIC3 = target: T2, ASIC3 (Rattus norvegicus, UniProt O35240); experiment: whole cell patch clamp electrophysiology, ASIC3; type: cell-based; details: 1 μM compound; pH 6.5 and pH 5.0; compared with the corresponding 5-vinyl esters
T2 construct: expressed in transfected cells
T2 sequence (O35240 1-533): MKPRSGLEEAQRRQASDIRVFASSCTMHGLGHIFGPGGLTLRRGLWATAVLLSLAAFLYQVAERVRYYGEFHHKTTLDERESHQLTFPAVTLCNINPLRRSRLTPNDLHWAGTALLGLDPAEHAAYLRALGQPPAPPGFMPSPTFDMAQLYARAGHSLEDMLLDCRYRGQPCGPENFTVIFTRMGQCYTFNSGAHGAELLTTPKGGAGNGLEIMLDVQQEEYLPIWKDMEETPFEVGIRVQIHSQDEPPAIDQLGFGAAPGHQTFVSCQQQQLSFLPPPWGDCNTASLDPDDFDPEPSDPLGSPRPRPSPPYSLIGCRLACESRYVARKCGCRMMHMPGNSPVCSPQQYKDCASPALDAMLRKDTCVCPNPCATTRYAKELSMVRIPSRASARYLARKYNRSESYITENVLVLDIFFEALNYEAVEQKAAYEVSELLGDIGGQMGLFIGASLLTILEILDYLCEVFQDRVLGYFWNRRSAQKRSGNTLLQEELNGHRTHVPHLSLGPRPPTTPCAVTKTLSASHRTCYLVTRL
Description: as §1, §2, §3, §4
as §5, with “included. […]” for “included.”

Male Sprague-Dawley rats = experiment: Formalin test (flinching behaviour); type: in vivo, rat; details: 10 mg/kg i.v. 10 min prior to formalin in the hind limb; compared with vehicle; n=8
Description: Male Sprague-Dawley rats (body weight, 180-300 g) are housed together in groups of four animals under standard conditions with unrestricted access to food and water. Rats are housed in the room in which the testing procedure is performed to minimize any stress response to novel environmental cues. All experiments are conducted according to the ethical guidelines for investigations of experimental pain in conscious animals (Zimmerman, 1983).
Separate groups of rats are used for the different experiments such that each animal is used on one occasion only. All experiments for a given compound are performed using age matched animals in an attempt to avoid variability between experiments. Prior to initiation of the formalin test, 4 rats are habituated in separate testing cages for 15-20 min. […] On the basis of the response pattern, two distinct phases of nociceptive behavior are observed, characterized by flinching of the affected paw and scored (Blackburn-Munro et al., Eur J Pharmacol. 2002 Jun. 12;445(3):231-8). […]
All data is analysed using Sigmastat 2.03 statistical software (Jandel Scientific GmbH, Germany) and expressed as mean±S.E.M. Two Way Repeated Measures Analysis of Variance (Two Way RM ANOVA) is used to analyse formalin test data and where applicable, this is followed by post-hoc analysis using Bonferroni's t-test to allow comparisons between groups. […]

ASIC1a [2] = target: T3, ASIC1a (Homo sapiens, UniProt P78348); experiment: FLIPR calcium assay (MES-induced calcium response), ASIC1a expressing HEK293 cells; type: cell-based; details: HEK293; at 1 μM, HEK cells, FLIPR
T3 construct: host or cells: HEK293
T3 sequence (P78348 1-528): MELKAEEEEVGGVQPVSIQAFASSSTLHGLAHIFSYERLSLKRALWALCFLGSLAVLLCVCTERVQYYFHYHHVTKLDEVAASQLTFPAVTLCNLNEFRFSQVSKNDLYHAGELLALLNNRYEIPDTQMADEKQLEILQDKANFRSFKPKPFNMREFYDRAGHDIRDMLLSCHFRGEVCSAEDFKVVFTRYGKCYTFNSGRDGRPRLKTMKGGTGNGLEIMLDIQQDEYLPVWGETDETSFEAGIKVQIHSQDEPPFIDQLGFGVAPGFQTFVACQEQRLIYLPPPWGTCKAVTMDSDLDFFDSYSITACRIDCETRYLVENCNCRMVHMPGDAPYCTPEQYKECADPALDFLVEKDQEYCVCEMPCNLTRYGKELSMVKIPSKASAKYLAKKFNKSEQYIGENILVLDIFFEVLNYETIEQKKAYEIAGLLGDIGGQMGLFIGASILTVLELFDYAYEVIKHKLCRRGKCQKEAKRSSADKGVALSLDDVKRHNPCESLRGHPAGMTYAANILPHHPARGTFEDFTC
Description: ASIC1a expressing HEK293 cells are grown in culture medium (DMEM with 10% FBS), in polystyrene culture flasks ([…]) at 37° C. in a humidified atmosphere of 5% CO2. Confluency of cells should be 80-90% on day of plating. Cells are rinsed with 10 ml of PBS and cells are re-suspended by addition of culture medium and trituration with a 25 ml pipette.
The cells are seeded at a density of approximately 1×10^6 cells/ml (100 μl/well) in black-walled, clear bottom, 96-well plates pre-treated with 10 mg/l poly-D-lysin (75 μl/well for ≧30 min). Plated cells were allowed to proliferate for 24 h before loading with dye.
Fluo-4/AM (1 mg, Molecular Probes) is added 912 μl DMSO. The Fluo-4/AM stock solution (1 mM) is diluted with culture medium to a final concentration of 2 μM.
The culture medium is aspirated from the wells, and 50 μl of the Fluo-4/AM loading solution is added to each well. The cells are incubated at 37° C. for 30 min.
After the loading period, the loading solution is aspirated and the cells are washed twice with 100 μl modified FLIPR medium (145 mM NaCl, 5 mM KCl, 5 mM CaCl2, 1 mM MgCl2, 10 mM HEPES, pH 7.4) to remove extracellular dye. Following the second wash, 100 μl modified FLIPR medium is added to each well and the fluorescence is measured in FLIPR.
Temperature: Room temperature (20-22° C.)
First addition: 50 μl test solution at a rate of 30 μl/sec and a starting height of […]
Second addition: 50 μl MES solution (20 mM, 5 mM final concentration) at a rate of 35 μl/sec and a starting height of 150 μl.
Reading intervals: pre-incubation—10 sec×7 and 3 sec×3 antagonist phase—3 sec×17 and 10 sec×12
Addition plates (compound test plate and MES plate) are placed on the right and left positions in the FLIPR tray, respectively. Cell plates are placed in the middle position and the ASIC1a program is effectuated. FLIPR will then take the appropriate measurements in accordance with the interval settings above. Fluorescence obtained after stimulation is corrected for the mean basal fluorescence (in modified FLIPR medium). […]

Row | SMILES | difference in current between control ASICs and ASICs with compound (ASIC1a) (ASIC1a [1]) | difference in current between control ASICs and ASICs with compound (ASIC3) (ASIC3) | flinching behaviour in Formalin test (Male Sprague-Dawley rats) | inhibition at 1 µM (ASIC1a [2])
1 | CCC1CN2CCC1CC2C(OC(=O)CC(C)(C)C)c1ccnc2ccc(OC)cc12 (stereo not drawn) [3,3-dimethyl-butyric acid (5-ethyl-1-aza-bicyclo[2.2.2]oct-2-yl)-(6-methoxy-quinolin-4-yl)-methyl ester] | larger difference in current | larger difference in current |  | 
2 | C=CC1CN2CCC1CC2[C@H](OC(=O)CCC1CCCC1)c1ccnc2ccccc12 (stereo partly drawn) [B] |  |  | attenuated flinching behaviour | 
3 | C=CC1CN2CCC1CC2[C@H](OC(=O)CCC1CCCC1)c1ccnc2ccccc12 (stereo partly drawn) [drawing 27] |  |  |  | 30 to 45%
4 | CCCCC(=O)OC(c1ccnc2ccc(OC)cc12)C1CC2CCN1CC2CC (stereo not drawn) [pentanoic acid (5-ethyl-1-aza-bicyclo[2.2.2]oct-2-yl)-(6-methoxy-quinolin-4-yl)-methyl ester] | larger difference in current | larger difference in current |  | 
